In series [1] the test system is HER2 overexpressing cells (SK-BR-3, BT-474, N87). Nature of the series: In vitro drug combinations with PB4188 (checkerboard titrations, isobolograms). Format: cell-based. The following applies: HRG in matrigel or HRG stress concentrations. Here is the method:
Moreover, combination with chemotherapeutic drugs and cyclin inhibitors were tested. Combinations were tested on HER2 overexpressing cells growing in the presence of HRG in matrigel (SK-BR-3 and BT-474) or in the presence of HRG stress concentrations (N87 and SK-BR-3 as described in proliferation assays). The inhibitory effect of drug combinations was tested by imaging or by measuring proliferation using Alamar Blue as described herein before. […] The extent of growth inhibition obtained with each combination was calculated. […] The inhibition values of the combination experiments were used by CHALICE™ Analyzer software to generate the isobolograms.

Series [2] concerns intracranial ST1360B PDX tumors.
Text: Mice carrying ST1360B tumors were supplemented with estrogen following tumor implantation. The tumor was washed with PBS and trimmed for residual connective tissues at the surface. The tumor was cut into small pieces and digested with Accutase and Collagenase IV to yield a suspension of single cells. The digestion was stopped by addition of media containing fetal bovine serum and the cell suspension was filtered through a 100 µm filter, washed in PBS and resuspended in PBS. The viability of the tumor cells was checked by trypan blue staining and the final concentration was 18 million viable cells/mL. The viability of total cells was greater than 80%. There was no differentiation between stromal or tumor cells and the solutions do also contain some cell debris. […] The cells were kept on ice until inoculation.
Mice were anaesthetized by hypnorm/midazolam (1 ml/100 g body weight) and placed in a stereotactic frame for fixation of the head. A longitudinal incision was made in the scalp exposing the calvarium. A hole was drilled in the skull 1.5 mm right of the sutura saggitalis and 0.5 mm posterior to the bregma using a microdrill. Ten µl of the cell suspension (180.000 cells) was injected at a depth of 2-2.5 mm at a rate of 60 nl/sec using a 100 µl syringe with a 25-gauge needle placed in a micro infusion pump. The needle was left for 3 minutes before being withdrawn. Bupivacaine (0.2 mg/100 g bodyweight) and Lidocaine (1 mg/100 g body weight) were administrated in the incision site for local anesthetic and the skin was closed with a suture. The mice were ear punched for identification and returned to their cages where they were monitored until fully recovered from the anesthesia. The mice were monitored at least twice per week (weight and clinical signs) after tumor inoculation and more often if clinical signs or weight loss was present.
Tumor development was monitored bi-weekly by T2-weighted MR imaging (axial and coronal planes). The first imaging session was 19 days after tumor inoculation. The animals were anesthetized during the MR imaging sessions (sevoflurane, 2-4% in ambient air supplemented with 100% O2 at approximately 4:1 ratio). Enrolment into study was based on two pathological MR scans showing tumor growth and a tumor volume of about 10-20 mm^3. Mice that meet the enrolment criteria were randomized into one of four groups. The first 32 mice that meet the inclusion criteria were enrolled into the study. Mice were randomized so all groups presented with the same mean tumor volume at treatment initiation.
Drugs were diluted in sterile saline before each dosing. Mice were placed under a heating lamp for approximately 5-10 minutes before injection of the test compound to make the procedure as quick and easy as possible. The mouse was placed on a tail restrain box and the test compound was dosed in the lateral tail vein as a single intravenous (i.v.) bolus dose. The dosing volume was 5.0mL/kg.
Tumor growth were monitored bi-weekly by T2-weighted MR imaging (axial and coronal planes) for the first two weeks after therapy initiation and weekly until 6 weeks after therapy. The animals were anesthetized during the MR imaging sessions (sevoflurane, 2-4% in ambient air supplemented with 100% O2 at approximately 4:1 ratio).
The brain with tumor was resected and preserved in 4% formaldehyde for 24-48 hours and transferred to 70% ethanol. The fixative: tissue ratio was at least 20:1.
Tumor volumes were measured on the images by drawing region of interests (ROIs) on the individual slices and calculating the volume of the ROIs.

In the case of `CO[C@H]1C[C@@H]2CC[C@@H](C)[C@@](O)(O2)C(=O)C(=O)N2CCCC[C@H]2C(=O)O[C@H]([C@H](C)C[C@@H]2CC[C@@H](OCCO)[C@H](OC)C2)CC(=O)[C@H](C)/C=C(\C)[C@@H](O)[C@@H](OC)C(=O)[C@H](C)C[C@H](C)/C=C/C=C/C=C/1C` [everolimus], in series [1], the “Drug combination with PB4188 (isobologram analysis)” value was “synergistic”.
Consider `O=C(CCCCCCC(=O)Nc1ccccc1)NO` [vorinostat], for which the “Drug combination with PB4188 (isobologram analysis)” value in series [1] is reported as “synergistic”.
On to `CC(=O)O[C@H]1C(=O)[C@@]2(C)[C@H]([C@H](OC(=O)c3ccccc3)[C@]3(O)C[C@H](OC(=O)[C@H](O)[C@@H](NC(=O)c4ccccc4)c4ccccc4)C(C)=C1C3(C)C)[C@]1(OC(C)=O)CO[C@@H]1C[C@@H]2O` [paclitaxel], for which the “Drug combination with PB4188 (isobologram analysis)” value in series [1] was “synergistic”.
The same measure, in the same setting: next, `CCOc1cc2ncc(C#N)c(Nc3ccc(OCc4ccccn4)c(Cl)c3)c2cc1NC(=O)/C=C/CN(C)C` [neratinib]: “synergistic”.
Consider T-DM1, for which the “Tumor growth by T2-weighted MRI” value in series [2] (compared to vehicle treated mice) is recorded as “inhibited”. In addition, the “mean tumor volume 10 days post therapy” value in series [2] (compared to vehicle treated mice, p<0.05, Tukey) is “significantly smaller compared to vehicle treated mice”. Besides, in series [2] (individual mouse, scale 0-4 (0 no, 4 massive brain edema), day 3 post initiation of therapy), the “Brain edema score day 3” value stood at 0. The compound further yielded a median survival in series [2] (post therapy initiation, T-DM1 10 mg/kg 4x qwk i.v., MCLA-128 25 mg/kg 4x twice wk i.v., vehicle 13 days) of 19.5 days.
On to `CS(=O)(=O)CCNCc1ccc(-c2ccc3ncnc(Nc4ccc(OCc5cccc(F)c5)c(Cl)c4)c3c2)o1` [lapatinib], for which the “Drug combination with PB4188 (isobologram analysis)” value in series [1] is “synergistic”.
As to `Cc1nc(NC(=O)N2CCC[C@H]2C(N)=O)sc1-c1ccnc(C(C)(C)C(F)(F)F)c1` [BYL719], in series [1], the “Drug combination with PB4188 (isobologram analysis)” value is listed as “synergistic”.
With `NC1(c2ccc(-c3nc4ccn5c(=O)[nH]nc5c4cc3-c3ccccc3)cc2)CCC1` [MK-2206], the “Drug combination with PB4188 (isobologram analysis)” value in series [1] is given as “synergistic”.

Values taken from patent publication EP4810518A2, “ANTIBODY THAT BINDS ERBB-2 AND ERBB-3” (Merus B.V., priority 2017, dated 2018).
